According to PMC8040520 (ACS chemical biology, 2020):

Tested on: BolI
Test: steady-state kinetics, CoA production
Assay type: biochemical, Bradyrhizobium oligotrophicum
Details: co-substrate SAM presumed; details in supplement

SMILES: CC(C)(COP(=O)(O)OP(=O)(O)OC[C@H]1O[C@@H](n2cnc3c(N)ncnc32)[C@H](O)[C@@H]1OP(=O)(O)O)[C@@H](O)C(=O)NCCC(=O)NCCSC(=O)/C=C/c1ccccc1 [cinnamoyl-CoA]
- Km: 3 µM
